Test system: JFH1-based recombinants of genotypes 1a, 1b, 2a, 2b, and 6a
Assay type: cell-based, hepatitis C virus
Settings: 500 IU/mL interferon-α2b, 20 μM ribavirin or 50 μM amantadine; for decrease in supernatant HCV RNA titers / decrease in the number of infected cells: 72 hrs, Huh7.5 cultures infected with genotype 1a/1b, 2a/2b and 6a recombinants

SMILES: NC12CC3CC(CC(C3)C1)C2 [amantadine]
- antiviral effect of treatment (infected cells and supernatant HCV RNA titers): no apparent effect
- decrease in supernatant HCV RNA titers: did not decrease
- decrease in the number of infected cells: did not decrease

SMILES: NC(=O)c1ncn([C@@H]2O[C@H](CO)[C@@H](O)[C@H]2O)n1 [ribavirin]
- antiviral effect of treatment (infected cells and supernatant HCV RNA titers): no apparent effect
- decrease in supernatant HCV RNA titers: did not decrease
- decrease in the number of infected cells: did not decrease

Source: US8569472B2, “Efficient cell culture system for hepatitis C virus genotype 6A” (priority 2007, dated 2013)
